According to patent US8883826B2, “Alkynyl derivatives as modulators of metabotropic glutamate receptors” (Addex Pharma SA, priority 2004, dated 2014):
“Also recorded” adds a separate entry of the source.

Assays:
mGluR5 = molecular target: T1, mGluR5 (Rattus norvegicus, UniProt P31424); assay: mGluR5 binding assay ([3H]-MPEP radioligand competition); conditions: competition with 3 nM [3H]-MPEP, rat brain cortical membranes, 1 h at 4 °C; mean of at least three independent experiments in duplicate
T1 construct: tissue Charles River Laboratories; host or cells: rat brain cortex membranes (Sprague-Dawley)
T1 sequence (P31424 21-1203): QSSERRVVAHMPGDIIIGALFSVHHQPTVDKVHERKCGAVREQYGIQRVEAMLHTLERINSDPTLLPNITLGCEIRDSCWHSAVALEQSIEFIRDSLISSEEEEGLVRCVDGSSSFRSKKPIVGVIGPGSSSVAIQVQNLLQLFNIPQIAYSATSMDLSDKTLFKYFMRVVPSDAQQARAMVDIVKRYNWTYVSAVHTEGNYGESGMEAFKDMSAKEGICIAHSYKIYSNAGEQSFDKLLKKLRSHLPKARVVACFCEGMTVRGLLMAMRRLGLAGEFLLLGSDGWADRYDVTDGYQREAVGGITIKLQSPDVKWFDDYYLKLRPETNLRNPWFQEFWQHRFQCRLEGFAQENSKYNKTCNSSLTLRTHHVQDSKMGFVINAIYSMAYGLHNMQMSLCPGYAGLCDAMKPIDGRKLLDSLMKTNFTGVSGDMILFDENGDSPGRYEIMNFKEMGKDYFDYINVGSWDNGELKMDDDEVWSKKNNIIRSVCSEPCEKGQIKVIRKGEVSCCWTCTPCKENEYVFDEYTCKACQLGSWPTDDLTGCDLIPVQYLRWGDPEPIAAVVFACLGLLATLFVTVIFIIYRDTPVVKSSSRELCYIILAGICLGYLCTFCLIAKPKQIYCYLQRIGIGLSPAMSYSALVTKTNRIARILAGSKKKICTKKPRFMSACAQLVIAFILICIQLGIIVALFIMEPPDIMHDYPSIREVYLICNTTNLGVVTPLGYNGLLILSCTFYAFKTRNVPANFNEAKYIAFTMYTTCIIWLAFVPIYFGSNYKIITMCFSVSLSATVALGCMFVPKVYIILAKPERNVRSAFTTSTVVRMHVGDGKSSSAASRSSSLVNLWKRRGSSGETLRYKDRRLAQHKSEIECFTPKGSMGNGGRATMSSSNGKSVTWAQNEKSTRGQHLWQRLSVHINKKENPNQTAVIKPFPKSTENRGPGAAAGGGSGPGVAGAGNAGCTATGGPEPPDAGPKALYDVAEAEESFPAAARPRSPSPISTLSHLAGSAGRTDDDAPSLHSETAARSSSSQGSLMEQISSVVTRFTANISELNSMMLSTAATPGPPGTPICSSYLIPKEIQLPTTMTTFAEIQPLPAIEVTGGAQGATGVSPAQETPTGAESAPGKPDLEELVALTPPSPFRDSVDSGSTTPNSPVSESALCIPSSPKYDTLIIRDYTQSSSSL
Summary of the method: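 Rat cortical membranes (50 μg) were incubated 1 h at 4 °C with 3 nM [3H]-MPEP and compound (0.003 nM-30 μM, 8 points) in HEPES buffer pH 7.4 with Mg2+, Ca2+ and NaCl. 30 μM MPEP defined non-specific binding, and bound label was counted after filtration. IC50 came from non-linear regression, as the mean of ≥3 experiments run in duplicate.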

Male Sprague-Dawley rats = assay: Vogel conflict drinking model of anxiety; assay type: in vivo, rat; conditions: n=9-10/group
Source text: Vogel Conflict Drinking Model of Anxiety in Rats
The Vogel conflict drinking model involves the conflict between thirst and receiving mild shocks for drinking water (punished drinking). Water-deprived rats are placed in a chamber and are periodically shocked for drinking water. The shocks suppress drinking and anxiolytics reverse this shock-induced suppression of drinking. The Vogel conflict drinking model was first proposed as a screening model for anxiolytics (Vogel, J. R. et al., Psychopharmacologia (Berl.), 21:1-7 (1971)) and is widely accepted as a robust model for testing the anxiolytic-like properties of compounds (Millan, M. J. and Brocco M., European Journal of Pharmacology, 463:67-96 (2003)).
Such compounds may be useful in the treatment of anxiety and related disorders. […]
The effect of compounds on drinking in the Vogel conflict drinking model in rats was tested. […] The number of punished drinks was counted automatically by the computer interface. […]
Statistical analyses were performed using GraphPad PRISM version 4.01 statistical software (GraphPad, San Diego, Calif., USA). Data were analyzed using one-way analysis of variance (ANOVA) followed by Bonferroni multiple comparisons. […]

Male C57BL6/j mice = assay: Marble burying model of anxiety; assay type: in vivo, mouse; conditions: 60 minutes prior to test, n=10/group
Source text: Marble Burying Model of Anxiety
Marble burying behavior in mice is reduced by compounds which are efficacious anxiolytics in humans. Thus, marble burying in mice has been used as a model for the prediction of anxiolytic-like effects of compounds (Millan, M. J. et al., Neuropharmacology, 42:677-684 (2002)).
Selective negative allosteric modulators (allosteric antagonists) of the metabotropic glutamate receptor subtype 5 (mGluR5) have been shown previously to reduce marble burying in mice (Spooren, W. P. et al., Journal of Pharmacology and Experimental Therapeutics, 295:1267-1275 (2000)). […] Such compounds may be useful in the treatment of anxiety and related disorders.
The present studies were performed in accordance with the animal care and use policies of Addex Pharmaceuticals and the EEC directives on the protection of animals used for experimental and other scientific purposes (86/609/EEC and subsequent revisions). […]
The effect of compounds on marble burying in mice was tested. […] After removal of the mice from the test cages, the number of marbles buried was counted. […]
Statistical analyses were performed using GraphPad PRISM version 4.01 statistical software (GraphPad, San Diego, Calif., USA). Data were analyzed using one-way analysis of variance (ANOVA) followed by Bonferroni-corrected multiple comparisons, or t tests if only 2 groups were present. […]

SMILES	IC50 (mGluR5) [nM]	punished drinking in the Vogel conflict drinking test (vs vehicle) (Male Sprague-Dawley rats; 30 mg/kg po, t(1, 17)=2.593, hydrochloride)	melting point [°C]	marble burying in mice (number of marbles buried vs vehicle) (Male C57BL6/j mice; 50 mg/kg po, t (1, 18)=3.92)	marble burying in mice (number of marbles buried vs vehicle) (Male C57BL6/j mice; 30 mg/kg po, t=3.686, p<0.01)	punished drinking in the Vogel conflict drinking test (vs vehicle) (Male Sprague-Dawley rats; 10 mg/kg po, t=3.585, p<0.01)
Cl.FCc1cccc(C#CCCn2nc3ccccc3n2)n1 [Example 130, 2-(4-(6-(Fluoromethyl)pyridin-2-yl)but-3-ynyl)-2H-benzo[d][1,2,3]triazole hydrochloride]	< 50	significantly increases punished drinking; also recorded: took significantly more punished licks than vehicle injected controls	172.5 to 173.5	–	–	–
Clc1cccn2cc(CCC#Cc3ccccn3)nc12 [Example 255, 8-Chloro-2-(4-(pyridin-2-yl)but-3-ynyl)-imidazo[1,2-a]pyridine]	< 50	–	106 to 107	significantly attenuates marble burying; also recorded: buried significantly fewer marbles than vehicle-treated mice	–	–
FCc1cccc(C#CCCc2cn3cccc(Cl)c3n2)n1 [Example 256, 8-Chloro-2-(4-(6-(fluoromethyl)pyridin-2-yl)but-3-ynyl)-imidazo[1,2-a]pyridine]	< 50	–	73 to 74.5	–	significantly attenuates marble burying; also recorded: buried fewer marbles than vehicle-treated mice	significantly increases punished drinking; also recorded: accepted significantly more shocks than vehicle-treated rats
